# Measurements: patent US20120244106A1 (SANOFI-AVENTIS U.S. LLC, priority 2009, published 2012)
# Legend:
# Format in all cases: in vivo, humans
# [1] = system: relapsing-remitting multiple sclerosis patients; assay: Brain MRI Gd-enhancing T1-lesions (number and volume), 24-week placebo-controlled add-on study, ITT population; conditions: 24 weeks
# Experimental: (§1) A placebo-controlled, double-blinded, randomized study was conducted in relapsing-remitting multiple sclerosis patients who were concurrently on a stable dose of glatiramer acetate. The dose of glatiramer acetate was 20 mg subcutaneously daily.
# (§2) Around 40 patients were treated in each treatment group (placebo: 41, 7 mg: 42, and 14 mg: 40). […] The mean age of the study population was 41.4 years. […] The base line Expanded Disability Status Scale (EDSS) score was similar between treatment groups (around 2.5). A few more patients had Magnetic Resonance Image (MRI) disease activity (at least one T1-Gd lesion) at baseline in 7 mg group (28.6%) than in placebo (14.6%) and 14 mg (12.8%) groups.
# (§3) Safety was evaluated with reported Treatment Emergent Adverse Events (TEAE), physical examination (every 8-weeks), laboratory data (e.g. Liver Function Test, every 2 weeks), vital signs (every 8-weeks), ECG and abdominal ultrasound (at baseline and at 24-weeks). Brain MRI activity, including T1-gadolinium (T1-Gd) lesions with central reading was recorded every 8-weeks, EDSS scores were recorded at baseline and at 24-weeks, Fatigue impact scale was assessed every 8-weeks, and relapses were assessed at every clinical visit.
# [2] = system: relapsing-remitting multiple sclerosis patients; assay: Confirmed MS relapses / annualized relapse rate, 24-week study, ITT population; conditions: 24 weeks
# Experimental: as §1, §2, §3
# Twenty-nine patients experienced a total of 30 confirmed relapses. Two relapses occurred after treatment discontinuation (1 day in one placebo patient, 41 days in one 7 mg patient). Therefore, 28 confirmed relapses occurring in 27 patients were included in the analysis (Table 3).
# [3] = system: relapsing-remitting multiple sclerosis patients; assay: Safety and tolerability (TEAE, laboratory data), 24-week study; conditions: 24 weeks
# Experimental: as §1
# Around 40 patients were treated in each treatment group (placebo: 41, 7 mg: 42, and 14 mg: 40).
# as §3
# [4] = system: relapsing-remitting multiple sclerosis patients; assay: Brain MRI Gd-enhancing T1-lesions (number and volume), entire 48-week double-blind treatment period, ITT population
# Experimental: (§4) Design/Methods: 96 of the 123 patients that were randomized to study treatment ([…]) for the first 6-months in Example 1 completed this 6-month period and accepted to continue medication for an additional 6-month period (placebo: 37, 7 mg: 30, 14 mg: 29). Of the 96 treated patients, 5 patients prematurely withdrew from the study treatment (placebo: 3, 7 mg: 0, and 14 mg: 2). Safety was evaluated from TEAE, physical exam (every 6 weeks), laboratory data (every 6 weeks), vital signs (every 6 weeks), ECG (at the close-out visit), pancreatic ultrasound (at the close-out visit) and brain MRI (at the close-out visit). Relapses were recorded and EDSS was performed every 6-weeks. Annualized relapse rates (ARR) were analyzed by a Poisson model with the total number of confirmed relapses onset between randomization date and last dose date as the response variable, treatment and region as covariates, and log-transformed standardized study duration as an offset variable. The following results report the entire 48-week double-blind treatment period.
# One patient (14 mg group) had one day participation in the study and had no valid baseline MRI data. Two other patients, one in 7 mg and one in 14 mg, prematurely discontinued the study and no post baseline MRI was collected.
# [5] = system: relapsing-remitting multiple sclerosis patients; assay: Confirmed MS relapses / annualized relapse rate, 48-week treatment period, ITT population; conditions: 48 weeks
# Experimental: Safety was evaluated from TEAE, physical exam (every 6 weeks), laboratory data (every 6 weeks), vital signs (every 6 weeks), ECG (at the close-out visit), pancreatic ultrasound (at the close-out visit) and brain MRI (at the close-out visit). Relapses were recorded and EDSS was performed every 6-weeks.
# [6] = system: relapsing-remitting multiple sclerosis patients; assay: Safety and tolerability (TEAE, laboratory data), 48-week treatment period; conditions: 48 weeks
# Experimental: as §4
# [7] = 7 mg teriflunomide + GA 20 mg sc daily
# [8] = 14 mg teriflunomide + GA 20 mg sc daily
# [9] = 7 mg or 14 mg teriflunomide + GA
# [10] = the two teriflunomide groups (7 mg, 14 mg) + GA vs placebo + GA
# [11] = 7 mg teriflunomide + GA 20 mg sc daily, 48 weeks
# [12] = 14 mg teriflunomide + GA 20 mg sc daily (group not given)
compound,measurement,setting,value
"C/C(O)=C(\C#N)C(=O)Nc1ccc(C(F)(F)F)cc1 [teriflunomide, (Z)-2-cyano-3-hydroxy-but-2-enoic acid-(4′-trifluoromethylphenyl)-amide]",Patients with >=1 Gd-enhancing T1-lesions post-baseline: No (% of patients),[1]; [7],61.0%
same,Unadjusted Gd-enhancing T1-lesions per scan,[1]; [7],0.321
same,Unadjusted Gd-enhancing T1-lesions per scan,[1]; [8],0.262
same,Disease control as evaluated by T1-Gd MRI activity,[1]; teriflunomide added to stable-dosed GA,improved disease control beyond glatiramer acetate alone
same,"Adjusted annualized relapse rate, estimate (Poisson model)",[2]; [7],0.311
same,Total number of relapses,[2]; [7],6
same,Unadjusted annualized relapses rate,[2]; [7],0.337 per patient year
same,"Adjusted annualized relapse rate, estimate (Poisson model)",[2]; [8],0.647
same,Total number of relapses,[2]; [8],12
same,Unadjusted annualized relapses rate,[2]; [8],0.710 per patient year
same,Concurrent increase in ALT>3ULN and in total bilirubin>2ULN,[3]; [9],No case
same,Deaths,[3]; [9],No patients died
same,Number of patients with TEAE leading to treatment discontinuation,[3]; [7],3
same,Patients with ALT greater than 3ULN,[3]; [7],0
same,Patients with TEAE leading to treatment discontinuation (%),[3]; [7],7.1%
same,Proportion of patients with TEAE potentially related to immunosuppression,[3]; [7],43%
same,Proportion of patients with a TEAE related to hepatic disorder,[3]; [7],9.5%
same,TEAE incidence rate,[3]; [7],83.3%
same,Number of patients with TEAE leading to treatment discontinuation,[3]; [8],4
same,Patients with ALT greater than 3ULN,[3]; [8],1
same,Patients with TEAE leading to treatment discontinuation (%),[3]; [8],10%
same,Proportion of patients with TEAE potentially related to immunosuppression,[3]; [8],38%
same,Proportion of patients with a TEAE related to hepatic disorder,[3]; [8],12.2%
same,TEAE incidence rate,[3]; [8],87.5%
same,Tolerability and safety,"[3]; each teriflunomide dose (7 mg, 14 mg) combined with GA",acceptable
same,Proportion of patients with occurrence of decreased WBC count and neutrophils (PCSA),[3]; [10],slightly higher
same,Patients with >=1 Gd-enhancing T1-lesions post-baseline: No (% of patients),[4]; [11],56.1%
same,Unadjusted Gd-enhancing T1-lesions per scan,[4]; [11],0.317
same,Unadjusted Gd-enhancing T1-lesions per scan,"[4]; 14 mg teriflunomide + GA 20 mg sc daily, 48 weeks",0.233
same,Controlling disease activity as measured by T1-Gd lesions,"[4]; teriflunomide added to GA, one-year study",trend to benefit
same,"Adjusted annualized relapse rate, estimate (Poisson model)",[5]; [7],0.262
same,Number of patients with >=1 relapses: Yes (number of patients),[5]; [7],8
same,Unadjusted annualized relapses rate,[5]; [7],0.281 per patient year
same,"Adjusted annualized relapse rate, estimate (Poisson model)",[5]; [8],0.497
same,Number of patients with >=1 relapses: Yes (number of patients),[5]; [8],15
same,Unadjusted annualized relapses rate,[5]; [8],0.546 per patient year
same,Number of patients experiencing a serious TEAE,[6]; [7],5
same,Number of patients with TEAE leading to treatment discontinuation,[6]; [7],3
same,Patients experiencing a serious TEAE (%),[6]; [7],11.9%
same,Patients who experienced a TEAE related to hypertension (number),[6]; [7],2
same,Patients with ALT greater than 3×ULN,[6]; [7],0
same,Patients with TEAE leading to treatment discontinuation (%),[6]; [7],7.1%
same,Proportion of patients experiencing a TEAE related to hypersensitivity,[6]; [7],14.3%
same,Proportion of patients with a TEAE potentially related to immunosuppression (all infections and hematological disorders),[6]; [7],52.4%
same,Proportion of patients with a TEAE related to hepatic disorder,[6]; [7],9.5%
same,TEAE incidence rate,[6]; [7],95.2%
same,Number of patients experiencing a serious TEAE,[6]; [12],2
same,Patients experiencing a serious TEAE (%),[6]; [12],4.9%
same,Number of patients with TEAE leading to treatment discontinuation,[6]; [8],5
same,Patients who experienced a TEAE related to hypertension (number),[6]; [8],2
same,Patients with ALT greater than 3×ULN,[6]; [8],1
same,Patients with TEAE leading to treatment discontinuation (%),[6]; [8],12.2%
same,Proportion of patients experiencing a TEAE related to hypersensitivity,[6]; [8],24.4%
same,Proportion of patients with a TEAE potentially related to immunosuppression (all infections and hematological disorders),[6]; [8],51.2%
same,Proportion of patients with a TEAE related to hepatic disorder,[6]; [8],12.2%
same,TEAE incidence rate,[6]; [8],92.7%
same,Tolerability and safety,"[6]; each dose of teriflunomide (7 mg, 14 mg) combined with GA",acceptable and manageable
same,Proportions of patients with occurrence of decreased WBC and neutrophil counts (PCSA),[6]; [10],slightly higher
